Experimental findings from publication PMC10254233, “Synthesis and In Vitro Biological Evaluation of p-Carborane-Based Di-tert-butylphenol Analogs” (Molecules, 2023) are described below.

In data set [1] the test system is primary peritoneal exudate cells. Kind of data set: Viability of primary peritoneal exudate cells, CV assay. It counts as cell-based. As to conditions: 72 h, cells from healthy mice.
Protocol: All cells were kept at 37 °C in a humidified atmosphere with 5% CO2.
Primary peritoneal exudates cells (PEC) isolated from C57BL/6 mice were used to estimate the selec-
Mice were obtained from the animal facility at the Institute for Biological Research “Siniša Stanković” - National Institute of the Republic of Serbia, University of Belgrade (Belgrade, Serbia). PEC were cultivated in HEPES-buffered (HEPES = 4-
5% heat-inactivated fetal bovine serum (FBS) and antibiotics under standard growth conditions (37 °C, 5% CO2). For viability determination cells were seeded at a density of 2 x 10^5 cells/well in 96-well plates.
Non-adherent cells were removed two hours after seeding and treatment was applied. Cell viability was determined after 72 h using a crystal violet (CV) assay.
the indicated concentrations for 72 h. Cell viability was determined by the CV test. The data are presented as a mean ± SD from one repre-
sentative out of three independent experiments. *p<0.05 refer to untreated cultures.
Data set [2] relates to HCT116 cells. Nature of the data set: ROS/RNS generation, DHR 123 staining. The data set is classed as cell-based, human. The conditions noted are these: HCT116, IC50 dose, 72 h. The text has this:
Apostat staining confirmed that apoptosis was in correlation with the activation of caspases (Figure 3C). […] The […] production of reactive oxygen species explains the observed effects of the applied treatments, namely inhibition of proliferation and induction of apoptosis (Figure 3E). It is widely accepted that drug-mediated hyperproduction of reactive oxygen species that are not buffered by cellular anti-oxidative protection is responsible for cell death induction. […] The described feature is acquired during disease progression, and it is tightly connected with abnormal blood supply and a hypoxic microenvironment. Therefore, elimination of these molecules results in a rapid decrease in cell viability. […]
(§1) Finally, after 72 h incubation, cells were washed, tryp-sinized, and analyzed using flow cytometry (CyFlow® Space Partec using the PartecFloMax® software […]
(§2) (30 µM) and R-830-Cb (50 µM)). […] Finally, for covering the slides fluorescent mounting medium was used and slides were ana-lyzed with Zeiss AxioObserver Z1 inverted fluorescence microscope (Carl Zeiss AG, Oberkochen, Ger-many) at 400 x magnification.
(§3) 1.1.5. Evaluation of the role of detected autophagy
(§4) Concomitant treatment of R-830-Cb and autophagy inhibitors chloroquine and 3-MA was performed to determine the nature of detected autophagy. […] Cell viability was evaluated using CV assay after 72 h. […]

Data set [3] relates to HCT116 cells. Nature of the data set: Co-treatment with autophagy inhibitors, CV assay. The data set is classed as cell-based, human. As to conditions: HCT116, 50 µM with 20 µM chloroquine or 1 mM 3-MA, 72 h.
Text: This means that the cytotoxic activity of the tested drug is enhanced by the inhibition of autophagy.
(G) HCT116 cells were co-treated with R-830-Cb and 3-methyladenine (3-MA) or chloroquine and viability was estimated by crystal violet (CV) assay. * p < 0.05; *** p < 0.001 in comparison to relevant control.
1.1.3. Measurement of reactive oxygen and nitrogen species (ROS/RNS) generation Dihydrorhodamine 123 (DHR) staining was used for detection of production of ROS/RNS species.
as §1
1.1.4. PI staining on chamber slides […]
as §2, §3, §4
Finally, after 72 h incubation, cells were tripsynized, washed, resuspended in PBS, and analyzed by flow cytometry (CyFlow® Space Partec using the PartecFloMax® software (Munster, Germany)).

As to “1-Hydroxy-12-(thiophen-2′-carbonyl)-1,12-dicarba-closo-dodecaborane(12) [Compound R-830-Cb]”, the “viability of primary peritoneal exudate cells” value in data set [1] is recorded as “completely non-toxic in the applied dose range”. For the same substance, the “reactive oxygen species production” value in data set [2] is “potent inhibition of ROS”. Moreover, the “cell viability on co-treatment with chloroquine or 3-MA” value in data set [3] is reported as “suppression of the autophagy process caused a drug-induced decrease in cell viability”.
